According to ChEMBL document CHEMBL1132087, “New N-substituted 7-aminocephalosporanic acid derivatives as potential agents against Streptococcus pneumoniae. Synthesis and in vitro activity” (1999):
Values after ≈ are worked out from the molar mass of the structure shown.

What was measured:
Type in all cases: functional
Streptococcus pneumoniae [1] = test: In vitro antibacterial activity against the gram-positive bacteria, penicillin resistant Streptococcus pneumoniae (4630)
Streptococcus pneumoniae [2] = test: In vitro antibacterial activity against the gram-positive bacteria, penicillin sensitive Streptococcus pneumoniae (3272)
Staphylococcus aureus [3] = test: In vitro antibacterial activity against the gram-positive bacteria, penicillin resistant Staphylococcus aureus (853)
Streptococcus pneumoniae [4] = test: In vitro antibacterial activity against the gram-positive bacteria, penicillin resistant Streptococcus pneumoniae (4629)
Staphylococcus aureus [5] = test: In vitro antibacterial activity against the gram-positive bacteria, penicillin sensitive Staphylococcus aureus (663E)
Streptococcus pyogenes = test: In vitro antibacterial activity against the gram-positive bacteria, erythromycin resistant Streptococcus pyogenes
Staphylococcus aureus [6] = test: In vitro antibacterial activity against the gram-positive bacteria, penicillin sensitive Staphylococcus aureus (3849)
Streptococcus pneumoniae [7] = test: In vitro antibacterial activity against the gram-positive bacteria, penicillin resistant Streptococcus pneumoniae (4636)
Staphylococcus aureus [8] = test: In vitro antibacterial activity against the gram-positive bacteria, penicillin resistant Staphylococcus aureus (2672)
Staphylococcus aureus [9] = test: In vitro antibacterial activity against the gram-positive bacteria, penicillin sensitive Staphylococcus aureus (3072)
Streptococcus pneumoniae [10] = test: In vitro antibacterial activity against the gram-positive bacteria, penicillin sensitive Streptococcus pneumoniae (3512)
Streptococcus pneumoniae [11] = test: In vitro antibacterial activity against the gram-positive bacteria, penicillin resistant Streptococcus pneumoniae (4635)
Streptococcus pneumoniae [12] = test: In vitro antibacterial activity against the gram-positive bacteria, penicillin sensitive Streptococcus pneumoniae (3273)
Staphylococcus aureus [13] = test: In vitro antibacterial activity against the gram-positive bacteria, penicillin resistant Staphylococcus aureus (2619)

## CC(=O)OCC1=C(C(=O)O)N2C(=O)[C@@H](NC(=O)CN(OCc3ccccc3Cl)C(=O)c3ccccc3)C2SC1 (stereo partly specified)
Streptococcus pneumoniae [1]
  MIC: 16 µg/mL (≈ 27.9 µM)
Streptococcus pneumoniae [2]
  MIC: 0.25 µg/mL (≈ 0.436 µM)
Staphylococcus aureus [3]
  MIC: 1 µg/mL (≈ 1.74 µM)
Streptococcus pneumoniae [4]
  MIC: 16 µg/mL (≈ 27.9 µM)
Staphylococcus aureus [5]
  MIC: 1 µg/mL (≈ 1.74 µM)
Streptococcus pyogenes
  MIC: 0.5 µg/mL (≈ 0.871 µM)
Staphylococcus aureus [6]
  MIC: 0.5 µg/mL (≈ 0.871 µM)
Streptococcus pneumoniae [7]
  MIC: 32 µg/mL (≈ 55.7 µM)
Staphylococcus aureus [8]
  MIC: 8 µg/mL (≈ 13.9 µM)
Staphylococcus aureus [9]
  MIC: 1 µg/mL (≈ 1.74 µM)
Streptococcus pneumoniae [10]
  MIC: 0.25 µg/mL (≈ 0.436 µM)
Streptococcus pneumoniae [11]
  MIC: 16 µg/mL (≈ 27.9 µM)
Streptococcus pneumoniae [12]
  MIC: 0.25 µg/mL (≈ 0.436 µM)
Staphylococcus aureus [13]
  MIC: 4 µg/mL (≈ 6.97 µM)

## CC(=O)OCC1=C(C(=O)O)N2C(=O)[C@@H](NC(=O)CN(OCc3cccc(Cl)c3)C(=O)c3ccccc3)C2SC1 (stereo partly specified)
Streptococcus pneumoniae [1]
  MIC: 8 µg/mL (≈ 13.9 µM)
Streptococcus pneumoniae [2]
  MIC: 0.06 µg/mL (≈ 0.105 µM)
Staphylococcus aureus [3]
  MIC: 0.5 µg/mL (≈ 0.871 µM)
Streptococcus pneumoniae [4]
  MIC: 8 µg/mL (≈ 13.9 µM)
Staphylococcus aureus [5]
  MIC: 0.5 µg/mL (≈ 0.871 µM)
Streptococcus pyogenes
  MIC: 0.25 µg/mL (≈ 0.436 µM)
Staphylococcus aureus [6]
  MIC: 0.5 µg/mL (≈ 0.871 µM)
Streptococcus pneumoniae [7]
  MIC: 2 µg/mL (≈ 3.48 µM)
Staphylococcus aureus [8]
  MIC: 4 µg/mL (≈ 6.97 µM)
Staphylococcus aureus [9]
  MIC: 0.5 µg/mL (≈ 0.871 µM)
Streptococcus pneumoniae [10]
  MIC: 0.06 µg/mL (≈ 0.105 µM)
Streptococcus pneumoniae [11]
  MIC: 1 µg/mL (≈ 1.74 µM)
Streptococcus pneumoniae [12]
  MIC: 0.12 µg/mL (≈ 0.209 µM)
Staphylococcus aureus [13]
  MIC: 1 µg/mL (≈ 1.74 µM)

## CC1(C)S[C@@H]2[C@H](NC(=O)[C@H](N)c3ccc(O)cc3)C(=O)N2[C@H]1C(=O)O.O=C(O)[C@H]1/C(=C/CO)O[C@@H]2CC(=O)N21
Streptococcus pneumoniae [1]
  MIC: 2 µg/mL
Streptococcus pneumoniae [2]
  MIC: < 0.015 µg/mL
Staphylococcus aureus [3]
  MIC: 2 µg/mL
Streptococcus pneumoniae [4]
  MIC: 4 µg/mL
Staphylococcus aureus [5]
  MIC: 0.25 µg/mL
Streptococcus pyogenes
  MIC: 0.06 µg/mL
Staphylococcus aureus [6]
  MIC: 0.25 µg/mL
Streptococcus pneumoniae [7]
  MIC: 4 µg/mL
Staphylococcus aureus [8]
  MIC: 1 µg/mL
Staphylococcus aureus [9]
  MIC: 0.5 µg/mL
Streptococcus pneumoniae [10]
  MIC: < 0.015 µg/mL
Streptococcus pneumoniae [11]
  MIC: 4 µg/mL
Streptococcus pneumoniae [12]
  MIC: < 0.015 µg/mL
Staphylococcus aureus [13]
  MIC: 2 µg/mL

## CC(=O)OCC1=C(C(=O)O)N2C(=O)[C@@H](NC(=O)CN(OCc3ccccc3)C(=O)NCc3ccccc3)C2SC1 (stereo partly specified)
Streptococcus pneumoniae [1]
  MIC: 16 µg/mL (≈ 28.1 µM)
Streptococcus pneumoniae [2]
  MIC: 0.12 µg/mL (≈ 0.211 µM)
Staphylococcus aureus [3]
  MIC: 1 µg/mL (≈ 1.76 µM)
Streptococcus pneumoniae [4]
  MIC: 16 µg/mL (≈ 28.1 µM)
Staphylococcus aureus [5]
  MIC: 0.5 µg/mL (≈ 0.879 µM)
Streptococcus pyogenes
  MIC: 0.25 µg/mL (≈ 0.44 µM)
Staphylococcus aureus [6]
  MIC: 1 µg/mL (≈ 1.76 µM)
Streptococcus pneumoniae [7]
  MIC: 32 µg/mL (≈ 56.3 µM)
Staphylococcus aureus [8]
  MIC: 2 µg/mL (≈ 3.52 µM)
Staphylococcus aureus [9]
  MIC: 1 µg/mL (≈ 1.76 µM)
Streptococcus pneumoniae [10]
  MIC: 0.25 µg/mL (≈ 0.44 µM)
Streptococcus pneumoniae [11]
  MIC: 4 µg/mL (≈ 7.03 µM)
Streptococcus pneumoniae [12]
  MIC: 0.5 µg/mL (≈ 0.879 µM)
Staphylococcus aureus [13]
  MIC: 1 µg/mL (≈ 1.76 µM)

## CC(=O)OCC1=C(C(=O)O)N2C(=O)[C@@H](NC(=O)CN(OCc3ccc(Cl)cc3)C(=O)NCc3ccccc3)C2SC1 (stereo partly specified)
Streptococcus pneumoniae [1]
  MIC: 8 µg/mL (≈ 13.3 µM)
Streptococcus pneumoniae [2]
  MIC: 0.25 µg/mL (≈ 0.415 µM)
Staphylococcus aureus [3]
  MIC: 1 µg/mL (≈ 1.66 µM)
Streptococcus pneumoniae [4]
  MIC: 8 µg/mL (≈ 13.3 µM)
Staphylococcus aureus [5]
  MIC: 0.5 µg/mL (≈ 0.829 µM)
Streptococcus pyogenes
  MIC: 0.12 µg/mL (≈ 0.199 µM)
Staphylococcus aureus [6]
  MIC: 0.5 µg/mL (≈ 0.829 µM)
Streptococcus pneumoniae [7]
  MIC: 32 µg/mL (≈ 53.1 µM)
Staphylococcus aureus [8]
  MIC: 2 µg/mL (≈ 3.32 µM)
Staphylococcus aureus [9]
  MIC: 1 µg/mL (≈ 1.66 µM)
Streptococcus pneumoniae [10]
  MIC: 0.25 µg/mL (≈ 0.415 µM)
Streptococcus pneumoniae [11]
  MIC: 4 µg/mL (≈ 6.63 µM)
Streptococcus pneumoniae [12]
  MIC: 0.5 µg/mL (≈ 0.829 µM)
Staphylococcus aureus [13]
  MIC: 1 µg/mL (≈ 1.66 µM)

## CC(=O)OCC1=C(C(=O)O)N2C(=O)[C@@H](NC(=O)CN(OCc3cccc(Cl)c3)C(=O)Nc3ccccc3)C2SC1 (stereo partly specified)
Streptococcus pneumoniae [1]
  MIC: 4 µg/mL (≈ 6.79 µM)
Streptococcus pneumoniae [2]
  MIC: 0.06 µg/mL (≈ 0.102 µM)
Staphylococcus aureus [3]
  MIC: 1 µg/mL (≈ 1.7 µM)
Streptococcus pneumoniae [4]
  MIC: 4 µg/mL (≈ 6.79 µM)
Staphylococcus aureus [5]
  MIC: 0.5 µg/mL (≈ 0.849 µM)
Streptococcus pyogenes
  MIC: 0.12 µg/mL (≈ 0.204 µM)
Staphylococcus aureus [6]
  MIC: 0.5 µg/mL (≈ 0.849 µM)
Streptococcus pneumoniae [7]
  MIC: 4 µg/mL (≈ 6.79 µM)
Staphylococcus aureus [8]
  MIC: 2 µg/mL (≈ 3.4 µM)
Staphylococcus aureus [9]
  MIC: 0.5 µg/mL (≈ 0.849 µM)
Streptococcus pneumoniae [10]
  MIC: 0.12 µg/mL (≈ 0.204 µM)
Streptococcus pneumoniae [11]
  MIC: 2 µg/mL (≈ 3.4 µM)
Streptococcus pneumoniae [12]
  MIC: 0.12 µg/mL (≈ 0.204 µM)
Staphylococcus aureus [13]
  MIC: 1 µg/mL (≈ 1.7 µM)

## CO/N=C(\C(=O)N[C@@H]1C(=O)N2C(C(=O)[O-])=C(C[n+]3cccc4c3CCC4)CS[C@H]12)c1csc(N)n1 [CEFPIROME]
Streptococcus pneumoniae [1]
  MIC: 1 µg/mL (≈ 1.94 µM)
Streptococcus pneumoniae [2]
  MIC: 0.06 µg/mL (≈ 0.117 µM)
Staphylococcus aureus [3]
  MIC: 2 µg/mL (≈ 3.89 µM)
Streptococcus pneumoniae [4]
  MIC: 2 µg/mL (≈ 3.89 µM)
Staphylococcus aureus [5]
  MIC: 1 µg/mL (≈ 1.94 µM)
Streptococcus pyogenes
  MIC: 0.03 µg/mL (≈ 0.0583 µM)
Staphylococcus aureus [6]
  MIC: 1 µg/mL (≈ 1.94 µM)
Streptococcus pneumoniae [7]
  MIC: < 0.5 µg/mL
Staphylococcus aureus [8]
  MIC: 2 µg/mL (≈ 3.89 µM)
Staphylococcus aureus [9]
  MIC: 1 µg/mL (≈ 1.94 µM)
Streptococcus pneumoniae [10]
  MIC: 0.06 µg/mL (≈ 0.117 µM)
Streptococcus pneumoniae [11]
  MIC: < 0.5 µg/mL
Streptococcus pneumoniae [12]
  MIC: 0.06 µg/mL (≈ 0.117 µM)
Staphylococcus aureus [13]
  MIC: 2 µg/mL (≈ 3.89 µM)

## CC(=O)OCC1=C(C(=O)O)N2C(=O)[C@@H](NC(=O)CN(OCc3ccccc3)C(=O)c3ccccc3)C2SC1 (stereo partly specified)
Streptococcus pneumoniae [1]
  MIC: 8 µg/mL (≈ 14.8 µM)
Streptococcus pneumoniae [2]
  MIC: 0.06 µg/mL (≈ 0.111 µM)
Staphylococcus aureus [3]
  MIC: 1 µg/mL (≈ 1.85 µM)
Streptococcus pneumoniae [4]
  MIC: 8 µg/mL (≈ 14.8 µM)
Staphylococcus aureus [5]
  MIC: 0.5 µg/mL (≈ 0.927 µM)
Streptococcus pyogenes
  MIC: 0.25 µg/mL (≈ 0.463 µM)
Staphylococcus aureus [6]
  MIC: 0.5 µg/mL (≈ 0.927 µM)
Streptococcus pneumoniae [7]
  MIC: 16 µg/mL (≈ 29.7 µM)
Staphylococcus aureus [8]
  MIC: 8 µg/mL (≈ 14.8 µM)
Staphylococcus aureus [9]
  MIC: 1 µg/mL (≈ 1.85 µM)
Streptococcus pneumoniae [10]
  MIC: 0.03 µg/mL (≈ 0.0556 µM)
Streptococcus pneumoniae [11]
  MIC: 8 µg/mL (≈ 14.8 µM)
Streptococcus pneumoniae [12]
  MIC: 0.06 µg/mL (≈ 0.111 µM)
Staphylococcus aureus [13]
  MIC: 2 µg/mL (≈ 3.71 µM)

## CC(=O)OCC1=C(C(=O)O)N2C(=O)[C@@H](NC(=O)CN(OCc3ccccc3Cl)C(=O)NCc3ccccc3)C2SC1 (stereo partly specified)
Streptococcus pneumoniae [1]
  MIC: 16 µg/mL (≈ 26.5 µM)
Streptococcus pneumoniae [2]
  MIC: 0.5 µg/mL (≈ 0.829 µM)
Staphylococcus aureus [3]
  MIC: 1 µg/mL (≈ 1.66 µM)
Streptococcus pneumoniae [4]
  MIC: 16 µg/mL (≈ 26.5 µM)
Staphylococcus aureus [5]
  MIC: 0.5 µg/mL (≈ 0.829 µM)
Streptococcus pyogenes
  MIC: 0.25 µg/mL (≈ 0.415 µM)
Staphylococcus aureus [6]
  MIC: 0.5 µg/mL (≈ 0.829 µM)
Streptococcus pneumoniae [7]
  MIC: 64 µg/mL (≈ 106 µM)
Staphylococcus aureus [8]
  MIC: 4 µg/mL (≈ 6.63 µM)
Staphylococcus aureus [9]
  MIC: 1 µg/mL (≈ 1.66 µM)
Streptococcus pneumoniae [10]
  MIC: 0.25 µg/mL (≈ 0.415 µM)
Streptococcus pneumoniae [11]
  MIC: 4 µg/mL (≈ 6.63 µM)
Streptococcus pneumoniae [12]
  MIC: 0.5 µg/mL (≈ 0.829 µM)
Staphylococcus aureus [13]
  MIC: 1 µg/mL (≈ 1.66 µM)
